“Also recorded” adds a separate entry of the source.
Columns and labels:
[1] = Blood 5-HT and urine 5-HIAA concentrations in mice given NdF by mini-osmotic pump; assay type: in vivo
Protocol: (§1) These lesions appear as endothelial cells recruitment and migration into the valvular leaflets with intense production of extracellular matrix.
(§2) Before the start of the experiment, baseline systolic blood pressure, heart rate and body weight were measured. […] The dose of sarpogrelate administered was 2 mg/kg/day. The experiment started two days after the subcutaneous implantation so as to allow the activation of the mini-osmotic pump. Systolic blood pressure, heart rate and body weight were measured each week until the end of the experiment. At the term (day 28), urinary samples were collected from mice to determine 5-hydroxy-indol acetic acid concentration (5-HIAA which is a serotonin metabolite).
Then, mice were euthanized using an injection of a […] dose of pentobarbital followed by an intra-cardiac blood puncture and whole blood serotonin concentration was determined.
All plasma was collected and analyzed in a single run.

[2] = Body weight, food intake, water intake, systolic blood pressure and heart rate in the NdF mouse model; assay type: in vivo, mice; settings: for Water intake: estimation of the water intake per cage per day: g = ml
Protocol: as §2

[3] = tested on: mitral valve leaflet; experiment: Histological morphometric analysis of mitral valve (thickness, cellularity) in NdF induced mitral remodeling; assay type: in vivo, mice
Protocol: as §1, §2
For morphometric analysis, one sagittal section (5 μm in thickness) is obtained after paraffin embedding and stained with hematoxylin and eosin stain. In each section, mitral valves are examined and cellularization counted. Extreme care is taken in sectioning the heart so that the valves are mainly cut transversely (with the attachment sides of the leaflets visible on both ends of the valve).
Valve histological morphometric analysis is performed visually using a microscope (Leica DM750®, Germany) with a 40× calibrated objective connected to a camera and a data acquisition and analysis system (Leica/Microsystems®LAS V4.8) by a single operator. Practically, on each section, the operator applies a large square of 250 μm×250 μm divided in 100 equal parts of 25 μm×25 μm each. For the quantification, the whole mitral valve leaflet section is divided in three equal parts. The proximal region is the one nearest the base cusp, followed by the medial and the distal regions. The proximal, medial and distal parts thicknesses are measured on three distinct sites in each region. The mean result is expressed in μm, in table 8.
The density of endothelial cells is evaluated in proximal, medial and distal regions. The numbers of cells is determined on a leaflet length of 25×4 μm (100 μm2). The result (mean) is expressed in number of cells per 100 μm2.

[4] = target: 5-HT2A receptor compared to the 5-HT2B one (Homo sapiens, UniProt P28223); settings: in words; Life Sci. 73, 193-207; cited from earlier work
Sequence of 5-HT2A receptor compared to the 5-HT2B one (P28223 whole entry): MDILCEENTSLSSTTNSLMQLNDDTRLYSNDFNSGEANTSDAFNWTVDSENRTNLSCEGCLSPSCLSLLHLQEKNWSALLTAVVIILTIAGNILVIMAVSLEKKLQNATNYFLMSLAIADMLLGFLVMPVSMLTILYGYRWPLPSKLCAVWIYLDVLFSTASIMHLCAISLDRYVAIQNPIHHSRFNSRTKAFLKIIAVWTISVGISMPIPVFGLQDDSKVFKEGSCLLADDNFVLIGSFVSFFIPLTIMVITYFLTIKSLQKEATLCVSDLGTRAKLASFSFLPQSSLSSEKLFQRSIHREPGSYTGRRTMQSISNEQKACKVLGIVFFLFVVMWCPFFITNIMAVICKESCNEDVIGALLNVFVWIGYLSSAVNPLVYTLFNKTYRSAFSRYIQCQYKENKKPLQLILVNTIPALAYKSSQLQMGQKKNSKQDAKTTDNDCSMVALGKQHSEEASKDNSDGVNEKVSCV

C[C@H](N)Cc1cccc(C(F)(F)F)c1 [NdF, nordexfenfluramine]
Effect on total blood (plasma) concentration of serotonin (5-HT) ([1]; in words): increases
5-HIAA ([1]; urine, day 28, mean, NdF 1 mg/kg/day, sarpogrelate 2 mg/kg/day): 10.62 mg/L
5-HT ([1]; whole blood, day 28, mean, NdF 1 mg/kg/day, sarpogrelate 2 mg/kg/day): 2259.78 µg/L
Body weight ([2]; Week 0 (baseline)): 25.10 g
Heart rate ([2]; Week 0 (baseline)): 539.7 beats/min
Systolic blood pressure ([2]; Week 0 (baseline)): 100.2 mmHg
Body weight ([2]; Week 1): 26.20 g
Food intake: estimation of the food intake for each mouse per week ([2]; Week 1): 32.83 g
Heart rate ([2]; Week 1): 579.5 beats/min
Systolic blood pressure ([2]; Week 1): 108.9 mmHg
Water intake: estimation of the water intake per cage per day ([2]; Week 1): 31.43 g
Food intake: estimation of the food intake for each mouse per week ([2]; Week 2): 30.71 g
Heart rate ([2]; Week 2): 571.8 beats/min
Systolic blood pressure ([2]; Week 2): 97.5 mmHg
Water intake: estimation of the water intake per cage per day ([2]; Week 2): 31.86 g
Body weight ([2]; Week 3): 27.20 g
Food intake: estimation of the food intake for each mouse per week ([2]; Week 3): 35.13 g
Heart rate ([2]; Week 3): 498.0 beats/min
Water intake: estimation of the water intake per cage per day ([2]; Week 3): 32.14 g
Body weight ([2]; Week 4): 26.50 g
Food intake: estimation of the food intake for each mouse per week ([2]; Week 4): 26.38 g
Heart rate ([2]; Week 4): 559.3 beats/min
Systolic blood pressure ([2]; Week 4): 99.5 mmHg
Water intake: estimation of the water intake per cage per day ([2]; Week 4): 33.07 g
Mitral valve thickness (mean) ([3]; day 28, mean of proximal, medial and distal parts, NdF 1 mg/kg/day, sarpogrelate 2 mg/kg/day): 67.467 μm
Endothelial cellularity (mean) ([3]; day 28, mitral valve): 9.988 cells/0.01 mm^2
Interstitial cellularity (mean) ([3]; day 28, mitral valve): 22.011 cells/0.01 mm^2
Effect on mitral valve thickness ([3]; in words): massive increase
Effect on valve interstitial cellularity ([3]; in words): increase

COc1cccc(CCc2ccccc2OCC(CN(C)C)OC(=O)CCC(=O)O)c1 (centres unmarked) [sarpogrelate]
Effect on total blood (plasma) concentration of serotonin (5-HT) ([1]; in words): reduces
Effect on urinary 5-HIAA ([1]; in words): reduces
Effect on interstitial migration of endothelial cells ([3]; in words): reduces
Effect on mitral valve thickness ([3]; in words): nearly completely prevented; also recorded: markedly reduces
Effect on valve interstitial cellularity ([3]; in words): prevents the increase
Receptor subtype preference (5-HT2A vs 5-HT2B) [4]: preferably blocking the 5-HT2A receptor

— US11116741B2, “Method for the treatment of valvular heart disease comprising administering a composition comprising sarpogrelate” (CEVA SANTE ANIMALE, priority 2017, dated 2021)
